Results published in patent US20190169140A1, “IDO1 INHIBITOR AND PREPARATION METHOD AND APPLICATION THEREOF” (SHANDONG LUYE PHARMACEUTICAL CO., LTD., priority 2016, published 2019).

Legend:
[1] = molecular target: T1, recombinant human IDO1 enzyme (Homo sapiens, UniProt P14902); assay: Test of hIDO1 for enzymatic activity in vitro (NFK Green fluorescence); format: biochemical
T1 construct: purchased NTRC (Netherlands Translational Research Center) NTRC-hIDO-10K
Experimental: 1. Test of hIDO1 for Enzymatic Activity In Vitro
1.1 Purpose of Experiment:
Changes in production of NFK, an IDO1 enzymatic metabolite were detected with NFK Green™ fluorescent molecules. With an IC50 value of a compound as an index, an inhibitory effect of the compound on recombinant human IDO1 enzyme was evaluated.
The compound was diluted with dimethyl sulfoxide (DMSO) to 1 mM, with 10 gradients, each 3-fold dilution, in duplicate. 48 μL of 50 mM phosphate buffer, having pH of 6.5, was transferred by the Bravo automatic liquid processing platform to the compound plate. Then 2 μL of an already diluted compound/DMSO solution was added. After even mixing, 10 μL of the resultant mixture was transferred to the enzymatic reaction plate.
IDO1 enzyme was diluted to 20 nM in a reaction buffer (50 mM phosphate buffer with pH of 6.5, 0.1% of Tween-20, 2% of glycerol, 20 mM ascorbic acid, 20 μg/ml catalase, and 20 μM methylene blue), 20 μL of the diluted IDO1 enzyme was transferred to the enzymatic reaction plate, and incubated at 23° C. for 30 minutes. 10 μL of 400 μM L-type tryptophan substrate was added to start reaction. The incubation lasted at 23° C. for 90 minutes. 10 μL of NFK Green™ fluorescent dye was added. The resultant mixture was sealed with the plate sealing film. After incubation at 37° C. for 4 hours, an Envision multi-functional plate reader was used for reading (Ex 400 nm/Em 510 nm).
A reference well to which the IDO1 enzyme was added but no compound was added was set to have an inhibition rate of 0%, and a reference well to which no IDO1 enzyme was added was set to have an inhibition rate of 100%. Data was analyzed with XLFit 5 to calculate an IC50 value of the compound.

[2] = molecular target: T2, IDO1 enzyme in Hela cells (Homo sapiens, UniProt P14902); assay: Test of hIDO1 for cytological activity (Hela cell kynurenine by LCMS, interferon-γ induced); format: cell-based; details: interferon-γ 100 ng/ml, 20 hours
T2 construct: endogenous in cells; host or cells: Hela cells, induced with recombinant human interferon-γ
T2 sequence (P14902 whole entry): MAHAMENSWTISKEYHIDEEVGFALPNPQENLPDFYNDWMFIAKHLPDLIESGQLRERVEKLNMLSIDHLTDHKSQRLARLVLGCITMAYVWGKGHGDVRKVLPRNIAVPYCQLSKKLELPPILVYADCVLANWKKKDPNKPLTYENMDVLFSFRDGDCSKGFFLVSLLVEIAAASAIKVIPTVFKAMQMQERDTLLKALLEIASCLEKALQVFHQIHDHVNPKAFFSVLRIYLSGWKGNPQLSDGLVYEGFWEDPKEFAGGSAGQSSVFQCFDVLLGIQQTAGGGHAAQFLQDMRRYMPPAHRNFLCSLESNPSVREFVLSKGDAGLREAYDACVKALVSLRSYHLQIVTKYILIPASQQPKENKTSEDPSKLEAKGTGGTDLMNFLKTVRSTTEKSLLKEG
Experimental: 2. Test of hIDO1 for Cytological Activity
Changes in Hela cell kynurenine were detected by an LCMS method. With an IC50 value of a compound as an index, an inhibitory effect of the compound on IDO1 enzyme was evaluated.
The culture medium, trypsin, and DPBS were preheated in water bath at 37° C. The culture medium was removed by sucking from cell culture, followed by cleaning the cell culture with 10 mL of DPBS; the preheated trypsin was added to the culture flask, which was revolved to make the culture flask covered by trypsin uniformly, and placed into an incubator at 37° C. with 5% CO2 for digestion for 1-2 minutes; 10-15 mL of the culture medium was used to suspend cells each T150, followed by centrifugation at 800 rpm for 5 minutes. 10 mL of the culture medium was used to resuspend the cells. 1 mL of the cell resuspension was pipetted, and counted with Vi-cell; the Hela cells were diluted to 5×10^5/mL with the culture medium, 80 μL of the diluted Hela cells were added to the 96-well cell plate, and incubated in the an incubator at 37° C. with 5% CO2 for 5-6 hours.
The compound was diluted with DMSO to 1 mM, with 9 gradients, each 3-fold dilution, in duplicate. 5 μL of the already diluted compound DMSO solution was added to the compound plate containing 95 μL of the culture medium. After even mixing, 10 μL of the mixture was transferred to the cell plate.
10 μL of recombinant human interferon-γ was added to result in a final concentration of 100 ng/ml, to induce expression of IDO1. Incubation was carried out in the 5% CO2 incubator at 37° C. for 20 hours. 4 μL of 5% (w/v) trichloroacetic acid was added, followed by even mixing and incubation at 50° C. for 30 minutes. After centrifugation at 2400 rpm for 10 minutes, 40 μL of a supernatant was added to a 96-well V-bottom plate, followed by addition of a precipitant. Centrifugation was carried out at 4000 rpm for 10 minutes after even mixing. 100 μL of the supernatant was transferred to a new 96-well V-bottom plate. A content of kynurenine was detected through LCMS.
A reference well to which the interferon-γ was added but no compound was added was set to have an inhibition rate of 0%, and a reference well to which no Hela cell was added was set to have an inhibition rate of 100%. Data was analyzed with XLFit 5 to calculate an IC50 value of the compound.

[3] = Test for permeability across MDR1; format: in vitro ADME; details: dog, MDCK-MDR1
Experimental: Test for Permeability Across MDR1
A sample for test was dissolved in dimethyl sulfoxide (DMSO) or other suitable solvents, to be prepared into 10 mM stock solution. A suitable internal standard (IS) was dissolved in acetonitrile (ACN) or other organic solvents as a stop solution. Specific information would be described in a research report.
Fenoterol, propranolol, and digoxin acted as low-permeability control, high-permeability control, and P-gp substrate in the present research. The stock solutions of these compounds were prepared with DMSO, stocked at 2-8° C., and valid for use within 3 months.
In the present project, a Hank's balanced salt buffer containing 10 mM HEPES was used as a transport buffer.
MDR1-MDCK II cells were cultivated using α-MEM culture media (α-Minimum Essential Media), with a culture condition of 37±1° C., 5% CO2, and saturated relative humidity. Afterwards, the cells were inoculated into a BD Transwell-96-well plate (BD Gentest), with an inoculation density of 2.3×10^5 cells/cm^2, then the cells were placed in a carbon dioxide incubator to be incubated for 4-7 days, and then used for a transport experiment.
A solution to be used was placed in a 37±1° C. water bath kettle to be pre-incubated for 30 minutes. The donor solution and the receiver solution were respectively added to corresponding sides of wells of cell plate (to an apical side and a basolateral side, 75 μL and 250 μL of samples were added respectively), and experiment of bidirectional transport was started. After the addition of the samples, the cell plate was placed in a 37±1° C., 5% CO2 incubator with saturated relative humidity to be incubated for 150 minutes.
The samples were all centrifuged at 3220 g for 10 minutes after being shaken in a vortex manner. A suitable volume of a supernatant was transferred to a sample analyzing plate. If analysis was not carried out immediately after the plate was sealed, the plate was stored at 2-8° C. The analysis was carried out through a method of LC/MS/MS.
The sample for test, fenoterol control, propranolol control, and digoxin were analyzed in a semiquantitative manner, and specific values of analytes to a peak area of the internal standard were taken as concentration of the controls.

T1 sequence (P14902 whole entry): as above

Compound | IC50 [1] | IC50 [2] | Papp A→B at 150 min, 2 µM [3] | Papp B→A at 150 min, 2 µM [3]
CS(=O)(=O)NCCOc1nonc1/C(=N/O)Nc1ccc(F)c(Br)c1 [Compound 0106] | 106 nM | 36.9 nM | – | –
CS(=O)(=O)NCCSc1nonc1/C(=N/O)Nc1ccc(F)c(Br)c1 [Compound 0229] | 80.1 nM | 11.2 nM | – | –
CNC(=O)COc1nonc1/C(=N/O)Nc1ccc(F)c(Br)c1 [Compound 0139] | 265 nM | 100 nM | – | –
CSc1nonc1/C(=N/O)Nc1ccc(F)c(Br)c1 [Compound 0068] | 113 nM | 28.6 nM | – | –
CNC(=O)CCSc1nonc1/C(=N/O)Nc1ccc(F)c(Br)c1 [Compound 0238] | 85.4 nM | 13.9 nM | – | –
NS(=O)(=O)N[C@H]1C[C@@H](Oc2nonc2/C(=N/O)Nc2ccc(F)c(Br)c2)C1 [Compound 0225] | 274 nM | 18.7 nM | – | –
NS(=O)(=O)NCCOc1nonc1C(=NO)Nc1ccc(F)c(C(F)F)c1 [Compound 0151] | 149 nM | 25.2 nM | – | –
O=C(NCCSc1nonc1/C(=N/O)Nc1ccc(F)c(Br)c1)C1CC1 [Compound 0236] | 129 nM | 55.4 nM | – | –
O=CNCCOc1nonc1/C(=N/O)Nc1ccc(F)c(Br)c1 [Compound 0153] | 153 nM | 82.4 nM | – | –
NCCOc1nonc1/C(=N/O)Nc1ccc(F)c(Br)c1 [Compound 0147] | 71.5 nM | 123 nM | – | –
CNC(=O)NCCSc1nonc1/C(=N/O)Nc1ccc(F)c(Br)c1 [Compound 0233] | 109 nM | 19.2 nM | – | –
O=S(=O)(O)NCCOc1nonc1/C(=N/O)Nc1ccc(F)c(Br)c1 [Compound 0148] | 147 nM | 159 nM | – | –
NS(=O)(=O)NCCCOc1nonc1/C(=N/O)Nc1ccc(F)c(Br)c1 [Compound 0118] | 55.3 nM | 64.5 nM | – | –
OCCOc1nonc1/C(=N/O)Nc1ccc(F)c(Br)c1 [Compound 0177] | 279 nM | 54.2 nM | – | –
COc1nonc1/C(=N/O)Nc1ccc(F)c(Br)c1 [Compound 0052] | 109 nM | 24.9 nM | – | –
O=C(NCCSc1nonc1/C(=N/O)Nc1ccc(F)c(Br)c1)NC1CC1 [Compound 0234] | 77 nM | 9.58 nM | – | –
CNC(=O)CSc1nonc1/C(=N/O)Nc1ccc(F)c(Br)c1 [Compound 0237] | 42.3 nM | 8.51 nM | – | –
CCS(=O)(=O)NCCSc1nonc1/C(=N/O)Nc1ccc(F)c(Br)c1 [Compound 0228] | 101 nM | 3.97 nM | 6.78 ×10⁻⁶ cm/s | 10.5 ×10⁻⁶ cm/s
NS(=O)(=O)NCCSc1nonc1/C(=N/O)Nc1ccc(F)c(C(F)(F)F)c1 [Compound 0157] | 160 nM | 13.4 nM | – | –

Further lines, results first:

IC50 [1] | IC50 [2] | Papp A→B at 150 min, 2 µM [3] | Papp B→A at 150 min, 2 µM [3] | Compound
144 nM | 34.4 nM | – | – | NS(=O)(=O)NCCSc1nonc1/C(=N/O)Nc1ccc(F)c(I)c1 [Compound 0273]
122 nM | 47.2 nM | – | – | NS(=O)(=O)NCCSc1nonc1/C(=N/O)Nc1cccc(I)c1 [Compound 0295]
95.7 nM | 17.1 nM | – | – | O=C(CSc1nonc1/C(=N/O)Nc1ccc(F)c(Br)c1)NC1CC1 [Compound 0247]
100 nM | 105 nM | – | – | N=C(N)NCCSc1nonc1/C(=N/O)Nc1ccc(F)c(Br)c1 [Compound 0383]
69.4 nM | 12.9 nM | – | – | O=C(NCCSc1nonc1/C(=N/O)Nc1ccc(F)c(Br)c1)C(F)F [Compound 0287]
44.3 nM | 7.15 nM | – | – | NC(=O)CSc1nonc1/C(=N/O)Nc1ccc(F)c(Br)c1 [Compound 0251]
164 nM | 30.3 nM | – | – | N#CCC(=O)NCCSc1nonc1/C(=N/O)Nc1ccc(F)c(Br)c1 [Compound 0249]
128 nM | 26.2 nM | – | – | CNS(=O)(=O)NCCSc1nonc1/C(=N/O)Nc1ccc(F)c(Br)c1 [Compound 0240]
54.5 nM | 23.5 nM | – | – | NC(=O)NCCSc1nonc1/C(=N/O)Nc1cccc(I)c1 [Compound 0309]
138 nM | 27 nM | – | – | COC(=O)NCCSc1nonc1/C(=N/O)Nc1ccc(F)c(Br)c1 [Compound 0250]
89.6 nM | 70.8 nM | – | – | NC(=O)CCSc1nonc1/C(=N/O)Nc1ccc(F)c(Br)c1 [Compound 0262]
173 nM | 152 nM | – | – | N=C(N)NC(=N)NCCSc1nonc1/C(=N/O)Nc1ccc(F)c(Br)c1 [Compound 0384]
60.1 nM | 29.5 nM | – | – | O=C(CO)NCCSc1nonc1/C(=N/O)Nc1ccc(F)c(Br)c1 [Compound 0293]
74.6 nM | 31.5 nM | – | – | O=C(CSc1nonc1/C(=N/O)Nc1ccc(F)c(Br)c1)NO [Compound 0260]
97.3 nM | 12.8 nM | – | – | N#C/N=C(\N)NCCSc1nonc1/C(=N/O)Nc1ccc(F)c(Br)c1 [Compound 0310]
74.4 nM | 14.8 nM | – | – | O=CNCCSc1nonc1/C(=N/O)Nc1ccc(F)c(Br)c1 [Compound 0245]
